In patent publication US7662417B2, “Preservatives and protective systems” (Laboratorios Miret, S.A., priority 2002, dated 2010):

How the values were obtained:
metabolism in rats = assay type: in vivo
toxicological studies = assay type: in vivo; settings: animals and humans
[1] = test system: Enterobacter aerogenes CECT 684; test: standard CMI evaluation; assay type: cell-based; settings: tested at 683-8 mg/L, both products contain 21% LAE
Experimental: (§1) A precipitate of xanthan/LAE is formed when 150 mL of a solution containing 1.3% of xanthan gum and 300 mL of a solution containing 0.3% of LAE are mixed. Then, 2.5 g of white solid are isolated by filtration.

[2] = test system: Citrobacter intermedium CECT 401; test: standard CMI evaluation; assay type: cell-based; settings: tested at 683-8 mg/L, both products contain 21% LAE
Experimental: as §1

[3] = test system: Candida albicans ATCC 10231; test: standard CMI evaluation; assay type: cell-based; settings: tested at 683-8 mg/L, both products contain 21% LAE
Experimental: as §1

[4] = test system: Aspergillus niger ATCC 14604; test: standard CMI evaluation; assay type: cell-based; settings: tested at 683-8 mg/L, both products contain 21% LAE
Experimental: as §1

[5] = test system: Rhodotorula ruba CECT 1158; test: standard CMI evaluation; assay type: cell-based; settings: tested at 683-8 mg/L, both products contain 21% LAE
Experimental: as §1

[6] = test system: Pseudomonas aeruginosa ATCC 9023; test: standard CMI evaluation; assay type: cell-based; settings: tested at 683-8 mg/L, both products contain 21% LAE
Experimental: as §1

[7] = test system: Salmonella typhimurium ATCC 16028; test: standard CMI evaluation; assay type: cell-based; settings: tested at 683-8 mg/L, both products contain 21% LAE
Experimental: as §1

[8] = test system: Bacillus cereus ATCC 9634; test: standard CMI evaluation; assay type: cell-based; settings: tested at 683-8 mg/L, both products contain 21% LAE
Experimental: as §1

[9] = test system: Staphylococcus aureus ATCC 6538; test: standard CMI evaluation; assay type: cell-based; settings: tested at 683-8 mg/L, both products contain 21% LAE
Experimental: as §1

[10] = test system: Escherichia coli ATCC 8739; test: standard CMI evaluation; assay type: cell-based; settings: tested at 683-8 mg/L, both products contain 21% LAE
Experimental: as §1

CCCCCCCCCCCC(=O)N[C@@H](CCCN=C(N)N)C(=O)OCC.Cl [LAE, ethyl ester of the lauramide of the arginine monohydrochloride]
absorption and metabolism (metabolism in rats): fast absorption and metabolisation into naturally-occurring amino acids and the fatty acid lauric acid
toxicity (toxicological studies): completely harmless
CMI [1]: 128 mg/L
CMI [2]: 128 mg/L
CMI [3]: 128 mg/L
CMI [4]: 170 mg/L
CMI [5]: 128 mg/L
CMI [6]: 256 mg/L
CMI [7]: 128 mg/L
CMI [8]: 128 mg/L
CMI [9]: 128 mg/L
CMI [10]: 128 mg/L
